Read-outs that look alike come from different tables or passages of the source.
Experiments:
[1] = system: Thrips palmi; experiment: Thrips palmi spray test (THRIPL); format: in vivo; details: application rate 20 ppm; cucumber plants; after 6 days
Method: Thrips palmi Spray Test (THRIPL)
Solvent: 3 parts by weight of dimethylformamide
Emulsifier: 1 part by weight of polyoxyethylene alkylphenyl ether
To produce an appropriate active ingredient formulation, 1 part by weight of active ingredient is mixed with the stated amounts of solvent and emulsifier, and the concentrate is diluted with emulsifier-containing water to the desired concentration. If required, ammonium salts or ammonium salts and penetrants are additionally added in a concentration of 1000 ppm.
Young cucumber plants (Cucumis sativus) are sprayed with an active ingredient formulation of the desired concentration. After drying, filter paper discs with about 100 thrips eggs (Thrips palmi) are placed onto the treated plants and, to give 100% air humidity, covered with housings.
After 6 days, the efficacy in % feeding damage is determined 100% means that there is no feeding damage; 0% means that there is no difference from the untreated control.

[2] = logP (HPLC-MS); format: physicochemical
[3] = system: Aulacophora femoralis; experiment: Aulacophora femoralis spray test (AUACFE); format: in vivo; details: application rate 20 ppm; cucumber plants, L2 larvae; after 6 days
Method: Aulacophora femoralis Spray Test (AUACFE) Solvent: 3 parts by weight of dimethylformamide Emulsifier: 1 part by weight of polyoxyethylene alkylphenyl ether To produce an appropriate active ingredient formulation, 1 part by weight of active ingredient is mixed with the stated amounts of solvent and emulsifier, and the concentrate is diluted with emulsifier-containing water to the desired concentration. If required, ammonium salts or ammonium salts and penetrants are additionally added in a concentration of 1000 ppm. Young cucumber plants (Cucumis sativus) at the cotyledonous leaf stage are sprayed with an active ingredient formulation of the desired concentration. After drying, the treated plant material is introduced into test vessels and each is infected with 5 L2 larvae of the cucurbit leaf beetle (Aulacophora femoralis). After 6 days, the efficacy in % is determined. 100% means that all of the beetle larvae have been killed; 0% means that none of the beetle larvae have been killed.

[4] = system: Boophilus microplus; experiment: Boophilus microplus test (BOOPMI injection); format: in vivo; details: application rate 20 μg/animal; injected into the abdomen; after 7 days
Method in brief: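 Read-out after 7 days is % efficacy, judged by fertile egg laying, with 100% meaning no fertile eggs from any tick. Compound was given by abdominal injection as a DMSO solution diluted to the desired concentration. Treated ticks were held in dishes in a climate-controlled room.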

[5] = system: Tetranychus urticae; experiment: Tetranychus test, OP-resistant (TETRUR spray treatment); format: in vivo; details: application rate 100 g/ha; bean leaf discs; after 6 days
Method in brief: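 Bean leaf discs infested with all stages of OP-resistant T. urticae sprayed with compound formulated in acetone/DMF plus alkylaryl polyglycol ether emulsifier, diluted in water. Efficacy (% mites killed) scored after 6 days.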

[6] = system: adult Musca domestica; experiment: Musca domestica test (MUSCDO); format: in vivo; details: application rate 100 ppm; treated sponge; after 2 days
Method in brief: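 After 2 days' exposure to a treated sponge, adult house fly mortality was recorded as kill %. Formulation: active ingredient in dimethyl sulphoxide, then water dilution to the test concentration.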

[7] = system: Ctenocephalides felis; experiment: Ctenocephalides felis oral (CTECFE); format: in vivo; details: application rate 100 ppm in citrated cattle blood; after 2 days
Method in brief: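 Readout is percent mortality after 2 days (0–100%) in roughly 20 unfed adult fleas. The fleas had imbibed citrated cattle blood dosed with compound through Parafilm, with the compound diluted from a DMSO concentrate.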

[8] = system: Tetranychus urticae; experiment: Common spider mite test (TETRUR); format: in vivo; details: application rate 100 ppm; bean leaf discs; after 6 days
Method: Common Spider Mite Test (TETRUR) Solvent: 3 parts by weight of dimethylformamide Emulsifier: 1 part by weight of polyoxyethylene alkylphenyl ether To produce an appropriate active ingredient formulation, 1 part by weight of active ingredient is mixed with the stated amounts of solvent and emulsifier, and the concentrate is diluted with emulsifier-containing water to the desired concentration. If required, ammonium salts or ammonium salts and penetrants are additionally added in a concentration of 1000 ppm. Discs of bean leaves (Phaseolus vulgaris) infested by all stages of the red spider mite (Tetranychus urticae) are sprayed with an active ingredient formulation of the desired concentration. After 6 days, the efficacy in % is determined. 100% means that all of the spider mites have been killed; 0% means that none of the spider mites have been killed.

[9] = system: Spodoptera litura; experiment: Spodoptera litura test (PRODLI); format: in vivo; details: application rate 20 ppm; synthetic feed, L3 larvae; after 6 days
Method: Spodoptera litura Test (PRODLI) Solvent: 3 parts by weight of dimethylformamide Emulsifier: 1 part by weight of polyoxyethylene alkylphenyl ether To produce an appropriate active ingredient formulation, 1 part by weight of active ingredient is mixed with the stated amounts of solvent and emulsifier, and the concentrate is diluted with emulsifier-containing water to the desired concentration. The base of a PET vessel (diameter 7.5 cm, depth 4 cm) is covered with 2.3 g of a pulverulent synthetic feed mixture. Then 5 ml of the active ingredient formulation are added and mixed at the same time with the synthetic feed. After gelation, 5 L3 larvae of the cotton leafworm (Spodoptera litura) are placed into each vessel. After 6 days, the efficacy in % is determined 100% means that all of the larvae have been killed; 0% means that none of the larvae have been killed.

Row | log p ([2]; HPLC, reversed-phase column (C18), acidic range pH 2.7, acetonitrile (0.1% formic acid)/water gradient, 43° C., calibration with unbranched alkan-2-ones) | chromatographic logP ([2]; HPLC, reversed-phase column (C18), acidic range pH 2.7, acetonitrile (0.1% formic acid)/water gradient, 43° C., calibration with unbranched alkan-2-ones, read-out: log p) | chromatographic logP ([2]; HPLC-MS) | Structure (SMILES) | efficacy in % feeding damage [1] | efficacy in % [3] | efficacy (laying of fertile eggs) [4] | efficacy in % [5] | efficacy (kill in %) [6] | efficacy (kill in %) [7] | efficacy in % [8] | efficacy in % [9]
1 | 3.59 | – | – | C#CCn1c(C(=O)NC(c2ccc(F)c(C(F)(F)F)c2)C(F)(F)F)cc2cc(C(=O)NC3CC3)c(Cl)cc21 (stereo not shown) [Compound 6] | 90% | 100% | 100% | 80% | 100% | 100% | 100% | 100%
2 | – | 3.78 | 3.8 | CCn1c(C(=O)NC(c2cccc(C(F)(F)F)c2)C(F)(F)F)cc2cc(C(=O)NC3(C#N)CC3)c(Cl)cc21 (stereo not shown) [Compound 7, 6-chloro-N^5-(1-cyanocyclopropyl)-1-ethyl-N^2-{2,2,2-trifluoro-1-[3-(trifluoromethyl)phenyl]ethyl}-1H-indole-2,5-dicarboxamide] | 98% | 100% | 100% | 100% | 100% | 100% | 100% | 100%

Source: patent US9107411B2, “Indolecarboxamides and benzimidazolecarboxamides as insecticides and acaricides” (BAYER INTELLECTUAL PROPERTY GMBH, priority 2011, dated 2015)
